Experimental findings from patent US20230048901A1, “SOLID ORAL FORMULATION OF UTIDELONE” (Beijing Biostar Pharmaceuticals Co., Ltd., priority 2020, published 2023) are described below.

This series is described as follows: Solubility of Utidelone in water and organic solvents. In kind it is physicochemical. The method, then:
The saturated solubility in water is less than 1 μg/ml, so it is difficult to develop into an oral formulation with suitable bioavailability. At present, the marketed epothilone antitumor drugs such as Utidelone injection and Ixabepilone injection etc., all of which use non-aqueous solvents such as ethanol and polyoxyl castor oil as solvents, are diluted with sodium chloride injection for administration by intravenous infusion. Since polyoxyl castor oil is a strong allergenic substance, antiallergic treatment must be given before intravenous administration, which reduces the compliance of this type of drug in clinical use, increases the adverse reactions of patients, and limits its clinical application.

Bounds are passed on as bounds.

With `C/C1=C/CC(/C(C)=C/c2csc(C)n2)OC(=O)C[C@H](O)C(C)(C)C(=O)[C@H](C)[C@@H](O)[C@@H](C)CCC1` (stereo partly drawn) [Utidelone, 4,8-dihydroxy-5,5,7,9,13-pentamethyl-16-[1-methyl-2-(2-methyl-thiazole-4-yl)-vinyl]-hexadecoxetane-13-en-2,6-one lactone], the “solubility in organic solvents” value (ethanol, methanol, ethyl acetate, chloroform) is on record as “easily soluble”. Further, the “solubility in water” value (water) was “insoluble in water”. Moreover, the solubility (water, read-out: saturated solubility in water) is less than 1 µg/mL.

The solubility is the concentration that dissolves in the medium under given conditions.
